Here are results for 36 compounds from US20130281445A1 (priority 2011, published 2013).

The IC50 is the concentration that inhibits the measured activity by half.

Each structure is given as a SMILES string. Some results are limits rather than exact numbers.

T1 sequence (P35790 whole entry): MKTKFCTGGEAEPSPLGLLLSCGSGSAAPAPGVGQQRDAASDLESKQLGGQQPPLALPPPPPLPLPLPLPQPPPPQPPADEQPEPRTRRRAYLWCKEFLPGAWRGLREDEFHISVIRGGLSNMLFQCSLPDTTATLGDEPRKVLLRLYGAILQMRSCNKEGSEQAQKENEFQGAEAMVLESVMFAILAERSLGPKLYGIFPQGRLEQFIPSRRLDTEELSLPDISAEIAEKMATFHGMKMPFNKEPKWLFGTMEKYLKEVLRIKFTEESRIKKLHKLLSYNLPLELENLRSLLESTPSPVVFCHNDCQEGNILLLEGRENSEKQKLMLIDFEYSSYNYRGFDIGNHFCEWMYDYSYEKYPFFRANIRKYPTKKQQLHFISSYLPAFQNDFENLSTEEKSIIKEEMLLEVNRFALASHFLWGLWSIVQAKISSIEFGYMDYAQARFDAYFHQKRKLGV

One test addresses T1, Choline Kinase alpha enzyme (Homo sapiens, UniProt P35790).
T1 construct: hChoKα1(M1-V457) (NP_001268); GST (N); made in house; host or cells: E. coli BL21(DE3)
The experiment in a line: Choline Kinase Alpha Inhibition Assay (coupled NADH absorbance). Type of test: biochemical.
Conditions: not given
On the procedure: An assay buffer solution was prepared which consisted of 100 mM Tris-HCl (pH 7.5), 100 mM KCl, and 10 mM MgCl2. An enzyme buffer containing reagents to final assay concentrations of 290 μM NADH, 2.4 mM phosphoenolpyruvate, 60 μg/mL pyruvate kinase, 20 μg/mL lactate dehydrogenase, 200 μM choline chloride substrate and 20 nM Choline Kinase alpha enzyme was prepared in assay buffer. To 32 μL of this enzyme buffer, in a 96 well plate, was added 2 μL of VRT stock solution in DMSO. The mixture was allowed to equilibrate for 10 mins at 25° C. The enzyme reaction was initiated by the addition of 32 μL stock ATP solution prepared in assay buffer to a final assay concentration of 400 μM. Initial rate data was determined from the rate of change of absorbance at 340 nm (corresponding to stoichiometric consumption of NADH) using a Molecular Devices Spectramax plate reader (Sunnyvale, Calif.) over 15 mins at 25° C. For each IC50 determination, 12 data points covering the VRT concentration range of 0-100 μM were obtained in duplicate (DMSO stocks were prepared from an initial 10 mM VRT stock with subsequent 1:2.5 serial dilutions). IC50 values were calculated from initial rate data using the Prism software package (Prism 4.0a, Graphpad Software, San Diego, Calif.).
hChoKα1(M1-V457) (NP_001268) was codon optimized for E. coli and cloned into a modified pGEX-2T vector. Recombinant GST-tagged ChoKα1 protein was produced in E. coli strain BL21(DE3). After growing cell cultures at 37° C. until the OD600=1, the cultures were induced with 1 mM IPTG for 16 h at 30° C. and the cells were harvested as a pellet (8500 rpm, 4° C., 20 min). The protein was purified using glutathione affinity purification followed by size exclusion via Superdex-200 26/60 (GE Healthcare). See Malito, Enrico et. al., “Journal of Molecular Biology”, Volume 364, Issue 2, pages 136-151 (November 2006).
`CN(C)c1ccc(C(=O)C2CN3CCC2CC3)cc1` (stereo not drawn) [Compound I-1, (4-dimethylaminophenyl)-quinuclidin-3-yl-methanone]: the IC50 is below 100 nM. Regarding `O=C(c1ccc(N2CCCC2)cc1)C1CN2CCC1CC2` (stereo not drawn) [Compound I-3, (4-pyrrolidin-1-ylphenyl)-quinuclidin-3-yl-methanone], the IC50 is below 100 nM. Same read-out and setting: to `CN1CCOc2cc(C(=O)C3CN4CCC3CC4)ccc21` (stereo not drawn) [Compound I-5] belongs below 100 nM; to `O=C(c1ccc(-c2ccccc2)cc1)C1CN2CCC1CC2` (stereo not drawn) [Compound I-14, (4-phenylphenyl)-quinuclidin-3-yl-methanone], 1000 to 50000 nM.

The test is the same for the next values; noted with them: 20 nM enzyme, 200 μM choline chloride, 400 μM ATP, 25° C.; read-out: IC50 values, Choline Kinase Alpha inhibition.
`CCN(CC)c1ccc(C(=O)C2CN3CCC2CC3)cc1` (stereo not drawn) [Compound I-2, [4-(diethylamino)phenyl]-quinuclidin-3-yl-methanone]: the IC50 is 100 to 1000 nM. Same read-out and setting: to `O=C(c1ccc(N2CCCCC2)cc1)C1CN2CCC1CC2` (stereo not drawn) [Compound I-4, [4-(1-piperidyl)phenyl]-quinuclidin-3-yl-methanone] belongs 100 to 1000 nM. Same read-out and setting: to `O=C(Cc1ccccc1)C1CN2CCC1CC2` (stereo not drawn) [Compound I-6, 2-phenyl-1-(quinuclidin-3-yl)ethanone] belongs 1000 to 50000 nM.

Take `COc1ccc(C(=O)C2CN3CCC2CC3)cc1` (stereo not drawn) [Compound I-7, (4-methoxyphenyl)-quinuclidin-3-yl-methanone]: the IC50 is 1000 to 50000 nM. Same read-out and setting: to `O=C(c1ccc2ccccc2c1)C1CN2CCC1CC2` (stereo not drawn) [Compound I-8, 2-naphthyl(quinuclidin-3-yl)methanone] belongs 100 to 1000 nM. On the same count and under the same terms, the result for `O=C(c1cccc(F)c1)C1CN2CCC1CC2` (stereo not drawn) [Compound I-9, (3-fluorophenyl)-quinuclidin-3-yl-methanone] reads 1000 to 50000 nM; that for `O=C(c1ccc(F)cc1)C1CN2CCC1CC2` (stereo not drawn) [Compound I-10, (4-fluorophenyl)-quinuclidin-3-yl-methanone], 1000 to 50000 nM; that for `O=C(c1ccc(F)c(Cl)c1)C1CN2CCC1CC2` (stereo not drawn) [Compound I-11, (3-chloro-4-fluoro-phenyl)-quinuclidin-3-yl-methanone], 1000 to 50000 nM. On the same count and under the same terms, the result for `COc1cc(OC)cc(C(=O)C2CN3CCC2CC3)c1` (stereo not drawn) [Compound I-12, (3,5-dimethoxyphenyl)-quinuclidin-3-yl-methanone] reads 1000 to 50000 nM; that for `CCCc1ccc(C(=O)C2CN3CCC2CC3)cc1` (stereo not drawn) [Compound I-13, (4-propylphenyl)-quinuclidin-3-yl-methanone], 100 to 1000 nM. `O=C(c1ccc2c(c1)OCO2)C1CN2CCC1CC2` (stereo not drawn) [Compound I-15, 1,3-benzodioxol-5-yl(quinuclidin-3-yl)methanone]: the IC50 was in the range of 1000 to 50000 nM. Still for that read-out and setting: to `CCc1ccc(C(=O)C2CN3CCC2CC3)cc1` (stereo not drawn) [Compound I-16, (4-ethylphenyl)-quinuclidin-3-yl-methanone] belongs 100 to 1000 nM. Same read-out and setting: to `O=C(c1cccc2ccccc12)C1CN2CCC1CC2` (stereo not drawn) [Compound I-17, 1-naphthyl(quinuclidin-3-yl)methanone] belongs 1000 to 50000 nM; to `O=C(c1cccc(-c2ccccc2)c1)C1CN2CCC1CC2` (stereo not drawn) [Compound I-18, (3-phenylphenyl)-quinuclidin-3-yl-methanone], 1000 to 50000 nM; to `O=C(c1ccc(OC(F)(F)F)cc1)C1CN2CCC1CC2` (stereo not drawn) [Compound I-19, quinuclidin-3-yl-[4-(trifluoromethoxy)phenyl]methanone], 1000 to 50000 nM. The same measure, in the same setting: to `CC(C)(C)c1ccc(C(=O)C2CN3CCC2CC3)cc1` (stereo not drawn) [Compound I-20, (4-tert-butylphenyl)-quinuclidin-3-yl-methanone] belongs 100 to 1000 nM; to `Cc1cccc(C(=O)C2CN3CCC2CC3)c1C` (stereo not drawn) [Compound I-21, (2,3-dimethylphenyl)-quinuclidin-3-yl-methanone], 1000 to 50000 nM.

Consider `O=C(c1nc2ccccc2s1)C1CN2CCC1CC2` (stereo not drawn) [Compound I-22, benzo[d]thiazol-2-yl(quinuclidin-3-yl)methanone], for which the IC50 is 1000 to 50000 nM. For the compound `Cc1ccc(Cl)cc1C(=O)C1CN2CCC1CC2` (stereo not drawn) [Compound I-23, (5-chloro-2-methylphenyl)(quinuclidin-3-yl)methanone], the IC50 was in the range of 1000 to 50000 nM. Same read-out and setting: to `Cc1ncccc1C(=O)C1CN2CCC1CC2` (stereo not drawn) [Compound I-24, (2-methyl-3-pyridyl)-quinuclidin-3-yl-methanone] belongs 1000 to 50000 nM; to `CN(C)c1ccc(C(=O)C2CN3CCC2CC3)cc1Br` (stereo not drawn) [Compound I-25, [3-bromo-4-(dimethylamino)phenyl]-quinuclidin-3-yl-methanone], 100 to 1000 nM; to `CN(C)c1c(Br)cc(C(=O)C2CN3CCC2CC3)cc1Br` (stereo not drawn) [Compound I-26, [3,5-dibromo-4-(dimethylamino)phenyl]-quinuclidin-3-yl-methanone], 1000 to 50000 nM.

On to `Cc1cc(C(=O)C2CN3CCC2CC3)ccc1N(C)C` (stereo not drawn) [Compound I-27, (4-(dimethylamino)-3-methylphenyl)(quinuclidin-3-yl)methanone], for which the IC50 lay within 100 to 1000 nM. On the same count and under the same terms, to `CN1CCN(C)c2cc(C(=O)C3CN4CCC3CC4)ccc21` (stereo not drawn) [Compound I-28, (1,4-dimethyl-2,3-dihydroquinoxalin-6-yl)-quinuclidin-3-yl-methanone] belongs 100 to 1000 nM; to `CC(O)c1ccc(C(=O)C2CN3CCC2CC3)cc1` (stereo not drawn) [Compound I-29, [4-(1-hydroxyethyl)phenyl]-quinuclidin-3-yl-methanone], 1000 to 50000 nM. The same measure, in the same setting: to `CN1CCc2cc(C(=O)C3CN4CCC3CC4)ccc21` (stereo not drawn) [Compound I-30] belongs 100 to 1000 nM; to `Cc1ccccc1C(=O)C1CN2CCC1CC2` (stereo not drawn) [Compound I-31, o-tolyl(quinuclidin-3-yl)methanone], 1000 to 50000 nM. Still for that read-out and setting: to `Cc1ccc(C(=O)C2CN3CCC2CC3)cc1` (stereo not drawn) [Compound I-32, p-tolyl(quinuclidin-3-yl)methanone] belongs 1000 to 50000 nM; to `O=C(c1cccc(Cl)c1)C1CN2CCC1CC2` (stereo not drawn) [Compound I-33, (3-chlorophenyl)-quinuclidin-3-yl-methanone], 1000 to 50000 nM; to `O=C(c1ccc(Cl)cc1)C1CN2CCC1CC2` (stereo not drawn) [Compound I-34, (4-chlorophenyl)-quinuclidin-3-yl-methanone], 1000 to 50000 nM. For `O=C(c1ccccc1)C1CN2CCC1CC2` (stereo not drawn) [Compound I-35, phenyl(quinuclidin-3-yl)methanone], the IC50 was 1000 to 50000 nM. As to `CC(C)c1ccc(C(=O)C2CN3CCC2CC3)cc1` (stereo not drawn) [Compound I-36], the IC50 is 100 to 1000 nM.
